Laboratory results as given in PubChem BioAssay (NCI).
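1) Cells in 96-well plates. 2) Compound, 48 h, 5 concentrations. 3) Linear interpolation between surrounding doses. 4) Unreached endpoint = highest concentration. Abbreviation: GI50, concentration required for 50% inhibition of growth. TGI is the concentration that stops growth completely.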

How the values were obtained:
Experiment in all cases: NCI-60 cell line screen, 48 h
786-0 renal = tested on: 786-0 renal
A498 renal = tested on: A498 renal
A549 NSCLC = tested on: A549 NSCLC
CAKI-1 renal = tested on: CAKI-1 renal
CCRF-CEM leukemia = tested on: CCRF-CEM leukemia
COLO 205 colon = tested on: COLO 205 colon
DU-145 prostate = tested on: DU-145 prostate
EKVX NSCLC = tested on: EKVX NSCLC
HCT-116 colon = tested on: HCT-116 colon
HCT-15 colon = tested on: HCT-15 colon
HL-60(TB) leukemia = tested on: HL-60(TB) leukemia
HOP-62 NSCLC = tested on: HOP-62 NSCLC
HS 578T breast = tested on: HS 578T breast
IGROV1 ovarian = tested on: IGROV1 ovarian
K-562 leukemia = tested on: K-562 leukemia
KM12 colon = tested on: KM12 colon
LOX IMVI melanoma = tested on: LOX IMVI melanoma
M14 melanoma = tested on: M14 melanoma
MALME-3M melanoma = tested on: MALME-3M melanoma
MCF7 breast = tested on: MCF7 breast
MDA-MB-231 breast = tested on: MDA-MB-231 breast
MDA-MB-435 = tested on: MDA-MB-435
MOLT-4 leukemia = tested on: MOLT-4 leukemia
NCI-H226 lung = tested on: NCI-H226 lung
NCI-H23 lung = tested on: NCI-H23 lung
NCI-H460 lung = tested on: NCI-H460 lung
NCI-H522 lung = tested on: NCI-H522 lung
NCI/ADR-RES ovarian = tested on: NCI/ADR-RES ovarian
OVCAR-3 ovarian = tested on: OVCAR-3 ovarian
OVCAR-4 ovarian = tested on: OVCAR-4 ovarian
OVCAR-5 ovarian = tested on: OVCAR-5 ovarian
OVCAR-8 ovarian = tested on: OVCAR-8 ovarian
PC-3 prostate = tested on: PC-3 prostate
RPMI-8226 leukemia = tested on: RPMI-8226 leukemia
RXF 393 renal = tested on: RXF 393 renal
SF-268 CNS = tested on: SF-268 CNS
SF-295 CNS = tested on: SF-295 CNS
SF-539 CNS = tested on: SF-539 CNS
SK-MEL-2 melanoma = tested on: SK-MEL-2 melanoma
SK-MEL-28 melanoma = tested on: SK-MEL-28 melanoma
SK-MEL-5 melanoma = tested on: SK-MEL-5 melanoma
SK-OV-3 ovarian = tested on: SK-OV-3 ovarian
SN12C renal = tested on: SN12C renal
SNB-19 CNS = tested on: SNB-19 CNS
SR leukemia = tested on: SR leukemia
SW-620 colon = tested on: SW-620 colon
T-47D breast = tested on: T-47D breast
TK-10 renal = tested on: TK-10 renal
U251 CNS = tested on: U251 CNS
UACC-257 melanoma = tested on: UACC-257 melanoma
UACC-62 melanoma = tested on: UACC-62 melanoma
UO-31 renal = tested on: UO-31 renal

SMILES: CCOC(=O)/C(C#N)=C\C=C(\Sc1nc2ccccc2s1)c1ccc(Cl)cc1
- GI50 (786-0 renal): 19.3 µM
- TGI (786-0 renal): 36.3 µM
- GI50 (A498 renal): 27.7 µM
- TGI (A498 renal): 72.5 µM
- GI50 (A549 NSCLC): > 100 µM
- TGI (A549 NSCLC): > 100 µM
- GI50 (CAKI-1 renal): 19.5 µM
- TGI (CAKI-1 renal): 41.4 µM
- GI50 (CCRF-CEM leukemia): 2.28 µM
- TGI (CCRF-CEM leukemia): 9.5 µM
- GI50 (COLO 205 colon): 20.1 µM
- TGI (COLO 205 colon): 42.8 µM
- GI50 (DU-145 prostate): 18.7 µM
- TGI (DU-145 prostate): 35.4 µM
- GI50 (EKVX NSCLC): 14.8 µM
- TGI (EKVX NSCLC): 31.6 µM
- GI50 (HCT-116 colon): 17.1 µM
- TGI (HCT-116 colon): 33.1 µM
- GI50 (HCT-15 colon): 16.4 µM
- TGI (HCT-15 colon): 45.2 µM
- GI50 (HL-60(TB) leukemia): 24.2 µM
- TGI (HL-60(TB) leukemia): > 100 µM
- GI50 (HOP-62 NSCLC): 29.1 µM
- TGI (HOP-62 NSCLC): 72.2 µM
- GI50 (HS 578T breast): 31.6 µM
- TGI (HS 578T breast): 68 µM
- GI50 (IGROV1 ovarian): 18.8 µM
- TGI (IGROV1 ovarian): 37.6 µM
- GI50 (K-562 leukemia): 20.2 µM
- TGI (K-562 leukemia): > 100 µM
- GI50 (KM12 colon): 38 µM
- TGI (KM12 colon): > 100 µM
- GI50 (LOX IMVI melanoma): 10.9 µM
- TGI (LOX IMVI melanoma): > 100 µM
- GI50 (M14 melanoma): 26.4 µM
- TGI (M14 melanoma): 54.3 µM
- GI50 (MALME-3M melanoma): 19.4 µM
- TGI (MALME-3M melanoma): 37.9 µM
- GI50 (MCF7 breast): 29.1 µM
- TGI (MCF7 breast): 84.5 µM
- GI50 (MDA-MB-231 breast): 50.9 µM
- TGI (MDA-MB-231 breast): > 100 µM
- GI50 (MDA-MB-435): 16.8 µM
- TGI (MDA-MB-435): 35.3 µM
- GI50 (MOLT-4 leukemia): 3.88 µM
- TGI (MOLT-4 leukemia): > 100 µM
- GI50 (NCI-H226 lung): 24 µM
- TGI (NCI-H226 lung): 46.7 µM
- GI50 (NCI-H23 lung): 20.9 µM
- TGI (NCI-H23 lung): 38.9 µM
- GI50 (NCI-H460 lung): 80.8 µM
- TGI (NCI-H460 lung): > 100 µM
- GI50 (NCI-H522 lung): 18.5 µM
- TGI (NCI-H522 lung): 41.4 µM
- GI50 (NCI/ADR-RES ovarian): 27.5 µM
- TGI (NCI/ADR-RES ovarian): 61.2 µM
- GI50 (OVCAR-3 ovarian): 14.4 µM
- TGI (OVCAR-3 ovarian): 27.5 µM
- GI50 (OVCAR-4 ovarian): 22 µM
- TGI (OVCAR-4 ovarian): 57.8 µM
- GI50 (OVCAR-5 ovarian): > 100 µM
- TGI (OVCAR-5 ovarian): > 100 µM
- GI50 (OVCAR-8 ovarian): 30.4 µM
- TGI (OVCAR-8 ovarian): 83.9 µM
- GI50 (PC-3 prostate): 13.5 µM
- TGI (PC-3 prostate): 26.3 µM
- GI50 (RPMI-8226 leukemia): 2.47 µM
- TGI (RPMI-8226 leukemia): 14 µM
- GI50 (RXF 393 renal): 18.3 µM
- TGI (RXF 393 renal): 37.6 µM
- GI50 (SF-268 CNS): 31.8 µM
- TGI (SF-268 CNS): > 100 µM
- GI50 (SF-295 CNS): 37.9 µM
- TGI (SF-295 CNS): > 100 µM
- GI50 (SF-539 CNS): 22.1 µM
- TGI (SF-539 CNS): 40.8 µM
- GI50 (SK-MEL-2 melanoma): 14.8 µM
- TGI (SK-MEL-2 melanoma): 33.5 µM
- GI50 (SK-MEL-28 melanoma): 25.5 µM
- TGI (SK-MEL-28 melanoma): 69.5 µM
- GI50 (SK-MEL-5 melanoma): 15.1 µM
- TGI (SK-MEL-5 melanoma): 31.9 µM
- GI50 (SK-OV-3 ovarian): 39.6 µM
- TGI (SK-OV-3 ovarian): > 100 µM
- GI50 (SN12C renal): 19.9 µM
- TGI (SN12C renal): 45.2 µM
- GI50 (SNB-19 CNS): 66.6 µM
- TGI (SNB-19 CNS): > 100 µM
- GI50 (SR leukemia): 4.91 µM
- TGI (SR leukemia): 46.9 µM
- GI50 (SW-620 colon): 14.3 µM
- TGI (SW-620 colon): 39.2 µM
- GI50 (T-47D breast): 20.3 µM
- TGI (T-47D breast): 45.1 µM
- GI50 (TK-10 renal): 20 µM
- TGI (TK-10 renal): 37.3 µM
- GI50 (U251 CNS): 29 µM
- TGI (U251 CNS): > 100 µM
- GI50 (UACC-257 melanoma): 13.7 µM
- TGI (UACC-257 melanoma): 46.8 µM
- GI50 (UACC-62 melanoma): 29.8 µM
- TGI (UACC-62 melanoma): 81.5 µM
- GI50 (UO-31 renal): 17 µM
- TGI (UO-31 renal): 35.4 µM
